Values of other authors, collected in patent US20130287898A1, “Trivalent Chromium and Boron Fortifying Composition, a Hydration Supplement, and Process for Preparing the Same” (priority 2010, published 2013).

What was measured:
[1] = Expert group of vitamins & Minerals, UK - 2003
[2] = in vivo
[3] = humans, 270 mg orally

Which “Safe Upper level per day” value [1] does the source give for [Cr] [Chromium] here?
The value was 10 mg.

Which “absorption from the gastrointestinal tract” value [2] does the source give for [B] [Boron] here?
Its value is “well absorbed”.

What about the excreted through urine [2] of the same molecule?
Its excreted through urine is “about 90%”.

With OB(O)O [boric acid] as the molecule, how does the “discomfort / signs of toxicity” value [3] read?
The value was “no obvious signs of toxicity”.
